Reference: patent US20260027116A1, “Methods of Treating Chronic Graft-Versus-Host Disease Following Allogeneic Hematopoietic Stem Cell Transplantation” (Kadmon Corporation, LLC, priority 2022, published 2026)

What was measured:
cGVHD symptom burden = assay: Example 2: 7-day LSS summary score; type: in vivo, human; details: for Clinically significant improvement from baseline (LSS), Overall: decrease ≥ 7 points in LSS score
Protocol: All responses were assessed by the study site investigators.

CYP2C19 = CYP2C19 (Homo sapiens, UniProt P33261); assay: enzyme inhibition in vitro; type: in vitro ADME
lung function = assay: Example 1: percent predicted FVC change from baseline; type: in vivo, human; details: mean (SD)
Protocol: Change From Baseline in Percent Predicted Forced Vital Capacity (FVC) at Each Specified Time Points. FVC was the total amount of air (in liters) exhaled from the lungs during the lung function test measured by spirometer which assessed the change in lung function related to the disease status. Baseline value was defined as valid and last non-missing value obtained within 28 days prior to participant receiving first study medication. EOT visit was performed within 3 days after the participant's last dose of study drug. […] Analysis was performed on mITT population. Here, ‘number analyzed’=participants with available data for each specified category. Here, ‘0’ in the number analyzed field signifies that none of the participants were available for the analysis at the specified time points.

Chain of CYP2C19 (P33261 whole entry): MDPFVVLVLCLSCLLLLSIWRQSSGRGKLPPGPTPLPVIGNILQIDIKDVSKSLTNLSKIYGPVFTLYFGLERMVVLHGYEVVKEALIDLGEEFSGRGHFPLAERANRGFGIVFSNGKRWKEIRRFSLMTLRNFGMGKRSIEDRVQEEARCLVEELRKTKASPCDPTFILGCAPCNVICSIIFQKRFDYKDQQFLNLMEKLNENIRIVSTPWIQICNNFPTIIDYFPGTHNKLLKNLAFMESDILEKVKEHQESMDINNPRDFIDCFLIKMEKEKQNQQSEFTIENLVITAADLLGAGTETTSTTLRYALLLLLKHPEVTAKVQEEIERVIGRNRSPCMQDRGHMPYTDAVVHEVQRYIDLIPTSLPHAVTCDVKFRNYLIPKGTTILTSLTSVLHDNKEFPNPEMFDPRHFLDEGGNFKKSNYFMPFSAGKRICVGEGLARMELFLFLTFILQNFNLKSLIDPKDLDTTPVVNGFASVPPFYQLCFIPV

## CC(C)NC(=O)COc1cccc(-c2nc(Nc3ccc4[nH]ncc4c3)c3ccccc3n2)c1 [Belumosudil, 2-{3-[4-(1H-indazol-5-ylamino)-2-quinazolinyl]phenoxy}-N-(propan-2-yl) acetamide]
cGVHD symptom burden; 200 mg daily
  clinically meaningful LSS improvement, nonresponders: 29%
  clinically meaningful LSS improvement, responders: 69%
  clinically meaningful improvement (≥7-point) in 7-day LSS summary score, mITT: 59%
cGVHD symptom burden; 200 mg twice daily
  clinically meaningful LSS improvement, nonresponders: 33%
  clinically meaningful LSS improvement, responders: 71%
  clinically meaningful improvement (≥7-point) in 7-day LSS summary score, mITT: 62%
cGVHD symptom burden; 200 mg daily (n = 66)
  Clinically significant improvement from baseline (LSS), Overall: 39 (59) n (%)
cGVHD symptom burden; 200 mg twice daily (n = 66)
  Clinically significant improvement from baseline (LSS), Overall: 41 (62) n (%)
cGVHD symptom burden; Total (N = 132)
  Clinically significant improvement from baseline (LSS), Overall: 80 (61) n (%)
CYP2C19
  inhibition of CYP2C19: inhibitor
Lung function; Cohort 1: 200 mg QD, Cycle 3, Day 1
  Change From Baseline in Percent Predicted Forced Vital Capacity (FVC): 0.5 (3.8) percent predicted FVC
Lung function; Cohort 1: 200 mg QD, Cycle 5, Day 1
  Change From Baseline in Percent Predicted Forced Vital Capacity (FVC): −0.5 (7.1) percent predicted FVC
Lung function; Cohort 1: 200 mg QD, Cycle 7, Day 1
  Change From Baseline in Percent Predicted Forced Vital Capacity (FVC): −2.9 (5.2) percent predicted FVC
Lung function; Cohort 1: 200 mg QD, Cycle 9, Day 1
  Change From Baseline in Percent Predicted Forced Vital Capacity (FVC): 0.4 (5.1) percent predicted FVC
Lung function; Cohort 1: 200 mg QD, Cycle 11, Day 1
  Change From Baseline in Percent Predicted Forced Vital Capacity (FVC): −1.1 (7.3) percent predicted FVC
Lung function; Cohort 1: 200 mg QD, Cycle 12, Day 1
  Change From Baseline in Percent Predicted Forced Vital Capacity (FVC): 2.0 (—) percent predicted FVC
Lung function; Cohort 1: 200 mg QD, Cycle 13, Day 1
  Change From Baseline in Percent Predicted Forced Vital Capacity (FVC): −2.4 (7.9) percent predicted FVC
Lung function; Cohort 1: 200 mg QD, Cycle 14, Day 1
  Change From Baseline in Percent Predicted Forced Vital Capacity (FVC): 11.0 (—) percent predicted FVC
Lung function; Cohort 1: 200 mg QD, Cycle 15, Day 1
  Change From Baseline in Percent Predicted Forced Vital Capacity (FVC): −3.7 (10.4) percent predicted FVC
Lung function; Cohort 1: 200 mg QD, Cycle 16, Day 1
  Change From Baseline in Percent Predicted Forced Vital Capacity (FVC): 16.0 (—) percent predicted FVC
Lung function; Cohort 1: 200 mg QD, Cycle 17, Day 1
  Change From Baseline in Percent Predicted Forced Vital Capacity (FVC): −3.2 (6.3) percent predicted FVC
Lung function; Cohort 1: 200 mg QD, Cycle 19, Day 1
  Change From Baseline in Percent Predicted Forced Vital Capacity (FVC): −2.3 (6.8) percent predicted FVC
Lung function; Cohort 1: 200 mg QD, Cycle 21, Day 1
  Change From Baseline in Percent Predicted Forced Vital Capacity (FVC): −3.2 (8.1) percent predicted FVC
Lung function; Cohort 1: 200 mg QD, Cycle 23, Day 1
  Change From Baseline in Percent Predicted Forced Vital Capacity (FVC): 0.0 (12.3) percent predicted FVC
Lung function; Cohort 1: 200 mg QD, Cycle 24, Day 1
  Change From Baseline in Percent Predicted Forced Vital Capacity (FVC): 4.0 (—) percent predicted FVC
Lung function; Cohort 1: 200 mg QD, Cycle 25, Day 1
  Change From Baseline in Percent Predicted Forced Vital Capacity (FVC): −7.0 (11.3) percent predicted FVC
Lung function; Cohort 1: 200 mg QD, Cycle 26, Day 1
  Change From Baseline in Percent Predicted Forced Vital Capacity (FVC): 4.0 (—) percent predicted FVC
Lung function; Cohort 1: 200 mg QD, Cycle 27, Day 1
  Change From Baseline in Percent Predicted Forced Vital Capacity (FVC): −2.0 (4.2) percent predicted FVC
Lung function; Cohort 1: 200 mg QD, Cycle 29, Day 1
  Change From Baseline in Percent Predicted Forced Vital Capacity (FVC): 2.5 (4.9) percent predicted FVC
Lung function; Cohort 1: 200 mg QD, Cycle 30, Day 1
  Change From Baseline in Percent Predicted Forced Vital Capacity (FVC): 4.0 (—) percent predicted FVC
Lung function; Cohort 1: 200 mg QD, Cycle 31, Day 1
  Change From Baseline in Percent Predicted Forced Vital Capacity (FVC): 1.5 (3.5) percent predicted FVC
Lung function; Cohort 1: 200 mg QD, Cycle 32, Day 1
  Change From Baseline in Percent Predicted Forced Vital Capacity (FVC): 2.0 (—) percent predicted FVC
Lung function; Cohort 1: 200 mg QD, Cycle 33, Day 1
  Change From Baseline in Percent Predicted Forced Vital Capacity (FVC): 11.0 (0.0) percent predicted FVC
Lung function; Cohort 1: 200 mg QD, Cycle 34, Day 1
  Change From Baseline in Percent Predicted Forced Vital Capacity (FVC): 6.0 (—) percent predicted FVC
Lung function; Cohort 1: 200 mg QD, Cycle 35, Day 1
  Change From Baseline in Percent Predicted Forced Vital Capacity (FVC): 11.0 (5.7) percent predicted FVC
Lung function; Cohort 1: 200 mg QD, Cycle 36, Day 1
  Change From Baseline in Percent Predicted Forced Vital Capacity (FVC): 5.0 (—) percent predicted FVC
Lung function; Cohort 1: 200 mg QD, Cycle 48, Day 1
  Change From Baseline in Percent Predicted Forced Vital Capacity (FVC): 5.0 (—) percent predicted FVC
Lung function; Cohort 1: 200 mg QD, Cycle 49, Day 1
  Change From Baseline in Percent Predicted Forced Vital Capacity (FVC): 6.0 (—) percent predicted FVC
Lung function; Cohort 1: 200 mg QD, Cycle 51, Day 1
  Change From Baseline in Percent Predicted Forced Vital Capacity (FVC): 9.0 (—) percent predicted FVC
Lung function; Cohort 1: 200 mg QD, Cycle 52, Day 1
  Change From Baseline in Percent Predicted Forced Vital Capacity (FVC): 3.0 (—) percent predicted FVC
Lung function; Cohort 1: 200 mg QD, Cycle 53, Day 1
  Change From Baseline in Percent Predicted Forced Vital Capacity (FVC): 8.0 (—) percent predicted FVC
Lung function; Cohort 1: 200 mg QD, Cycle 54, Day 1
  Change From Baseline in Percent Predicted Forced Vital Capacity (FVC): 5.0 (—) percent predicted FVC
Lung function; Cohort 1: 200 mg QD, Cycle 55, Day 1
  Change From Baseline in Percent Predicted Forced Vital Capacity (FVC): 13.0 (—) percent predicted FVC
Lung function; Cohort 1: 200 mg QD, Cycle 56, Day 1
  Change From Baseline in Percent Predicted Forced Vital Capacity (FVC): 7.0 (—) percent predicted FVC
Lung function; Cohort 1: 200 mg QD, Cycle 57, Day 1
  Change From Baseline in Percent Predicted Forced Vital Capacity (FVC): 14.0 (—) percent predicted FVC
Lung function; Cohort 1: 200 mg QD, Cycle 58, Day 1
  Change From Baseline in Percent Predicted Forced Vital Capacity (FVC): 7.0 (—) percent predicted FVC
Lung function; Cohort 1: 200 mg QD, Cycle 60, Day 1
  Change From Baseline in Percent Predicted Forced Vital Capacity (FVC): 8.0 (—) percent predicted FVC
Lung function; Cohort 1: 200 mg QD, Cycle 61, Day 1
  Change From Baseline in Percent Predicted Forced Vital Capacity (FVC): 12.0 (—) percent predicted FVC
Lung function; Cohort 1: 200 mg QD, Cycle 62, Day 1
  Change From Baseline in Percent Predicted Forced Vital Capacity (FVC): 5.0 (—) percent predicted FVC
Lung function; Cohort 1: 200 mg QD, Cycle 63, Day 1
  Change From Baseline in Percent Predicted Forced Vital Capacity (FVC): 12.0 (—) percent predicted FVC
Lung function; Cohort 1: 200 mg QD, Cycle 67, Day 1
  Change From Baseline in Percent Predicted Forced Vital Capacity (FVC): 14.0 (—) percent predicted FVC
Lung function; Cohort 1: 200 mg QD, EOT
  Change From Baseline in Percent Predicted Forced Vital Capacity (FVC): −2.5 (10.3) percent predicted FVC
Lung function; Cohort 2: 200 mg BID, Cycle 3, Day 1
  Change From Baseline in Percent Predicted Forced Vital Capacity (FVC): −2.4 (6.0) percent predicted FVC
Lung function; Cohort 2: 200 mg BID, Cycle 5, Day 1
  Change From Baseline in Percent Predicted Forced Vital Capacity (FVC): −4.3 (5.2) percent predicted FVC
Lung function; Cohort 2: 200 mg BID, Cycle 7, Day 1
  Change From Baseline in Percent Predicted Forced Vital Capacity (FVC): −1.3 (6.4) percent predicted FVC
Lung function; Cohort 2: 200 mg BID, Cycle 8, Day 1
  Change From Baseline in Percent Predicted Forced Vital Capacity (FVC): 2.0 (—) percent predicted FVC
Lung function; Cohort 2: 200 mg BID, Cycle 9, Day 1
  Change From Baseline in Percent Predicted Forced Vital Capacity (FVC): −2.9 (5.5) percent predicted FVC
